Experimental data published in patent US7601863B2, “Use of PPAR agonists for the treatment of congestive heart failure” (sanofi-aventis Deutschland GmbH, priority 2004, dated 2009).

Legend:
[1] = tested on: rat model of chronic coronary artery ligation (myocardial infarction, congestive heart failure); assay: Proof of concept study: chronic heart failure after permanent left coronary artery occlusion; lung weight and isolated working heart after eight weeks of treatment; format: in vivo, Male Wistar rats; settings: for Lung weight / Cardiac output / LV dP/dtmax / LV dP/dtmin: MI, eight weeks, mean ± sem; for Cardiac output / LV dP/dtmax / LV dP/dtmin: working heart, afterload 80 mmHg
Description: In order to test the effect of specific activation of either PPARγ (rosiglitazone) or PPARα (compound of formula (I), (II) and (III)) on the improvement of CHF, a rat model of chronic coronary artery ligation was used because myocardial infarction is the most common cause for CHF in the industrialized countries.
Male Wistar rats were housed three per cage under standardized conditions of temperature, humidity, and light. They had free access to a standardized diet (sodium content 0.2%, Altromin, Lage, Germany) and tap drinking water. Chronic heart failure was induced by a permanent occlusion of the left coronary artery approximately 2 mm distal to its origin from the aorta resulting in a large infarction of the free left ventricular wall. Chronic treatment was initiated on the day after production of the myocardial infarction and continued for eight weeks.
The left atrium was cannulated by an incision of the left auricle. After a 15-minute equilibration period at a fixed perfusion pressure of 60 mmHg, the heart was switched into the working mode at a fixed filling pressure of 11 mm Hg. Then, afterload pressure was varied stepwise every two minutes from 40 to 140 mmHg. […] Flow and pressure signals were sampled at 500 Hz, averaged every 2 seconds. Cardiac output measures the overall capacity of the heart to pump the blood through the body. LV dP/dtmax is an index of myocardial contractility, i.e. the force generating ability of the heart; LV dP/dtmin is an index of the ability of the myocardium to relax. In addition, lung weight was measured as an index of pulmonary congestion, an indirect sign of CHF.
Treatment with a compound of the formula (I) (pressed in chow, resulting in a dose of 20 mg/kg/d) was initiated on the day after myocardial infarction. The pure PPARγ agonist rosiglitazone was used for comparison in an additional group (3 mg/kg/day in chow).

[2] = tested on: rats with chronic ligation of the left coronary artery (myocardial infarction, heart failure); assay: Dose response in chronic myocardial infarction: lung weight and isolated working heart after 8 weeks of treatment; format: in vivo, Male Sprague Dawley rats; settings: for Lung weight / Cardiac output / LV dP/dtmax / LV dP/dtmin: MI, 8 weeks, mean ± sem; for Cardiac output / LV dP/dtmax / LV dP/dtmin: working heart, afterload 80 mmHg
Description: At the end of the treatment period, cardiac function was measured using an isolated working heart preparation (modified Langendorff apparatus, cf. Linz et al., J. Ren. Angiotensin Aldosterone Syst., 2003): The hearts were perfused according to Langendorff's method with an oxygenated (95% O2, 5% CO2) noncirculating Krebs-Henseleit solution of the following compositions (mmol/L): NaCl, 118; KCl, 4.7; CaCl2, 2.5; MgSO4, 1.6; NaHCO3, 24.9; KH2PO4, 1.2; glucose, 5.5; Na-pyruvate, 2.0. The left atrium was cannulated by an incision of the left auricle. After a 15-minute equilibration period at a fixed perfusion pressure of 60 mmHg, the heart was switched into the working mode at a fixed filling pressure of 11 mm Hg. Then, afterload pressure was varied stepwise every two minutes from 40 to 140 mmHg. Data in the table are representative and given for a constant afterload pressure of 80 mmHg. Flow and pressure signals were sampled at 500 Hz, averaged every 2 seconds. Cardiac output measures the overall capacity of the heart to pump the blood through the body. LV dP/dtmax is an index of myocardial contractility, i.e. the force generating ability of the heart; LV dP/dtmin is an index of the ability of the myocardium to relax. In addition, lung weight was measured as an index of pulmonary congestion, an indirect sign of CHF.
Male Sprague Dawley rats were pre-treated with a chronic ligation of the left coronary artery, in order to produce a myocardial infarction (MI) and subsequent development of heart failure: Treatment with a compound of the formula (I) (pressed in chow, resulting in different daily doses) was initiated on the day after myocardial infarction. After 8 weeks of treatment, the animals were killed, the lung was weighed, and the function of the isolated heart was analyzed ex vivo in the working heart mode, in the same manner as described for Example 1 (vide supra). This method allows to assess different aspects of the myocardial function. For comparison against the effect of an established therapeutic principle in the present experimental series, the dual ACE/NEP, or vasopeptidase, inhibitor (7-(2-Acetylsulfanyl-3-methyl-butyrylamino)-6-oxo-1,2,3,4,6,7,8,12b-octahydro-benzo[c]pyrido[1,2-a]azepine-4-carboxylic acid; international patent application no. WO 02/083671) that is known for being active in the treatment of CHF was applied in an additional group.

[3] = rosiglitazone 3 mg/kg/d in chow
[4] = compound (I) 20 mg/kg/d in chow

Compound: CN(CCOc1ccc(CC2SC(=O)NC2=O)cc1)c1ccccn1 (centres unmarked) [Rosiglitazone, rosiglitazone, reference compound]
- Lung weight [1, 3]: 3.67 ± 0.38 Gram
- Cardiac output [1, 3]: 10.2 ± 3.8 mL/min
- LV dP/dtmax [1, 3]: 3491 ± 147 mmHg/s
- LV dP/dtmin [1, 3]: 2081 ± 65 mmHg/s

Compound: CC(=O)SC(C(=O)NC1Cc2ccccc2C2CCCC(C(=O)O)N2C1=O)C(C)C (centres unmarked) [VPI, 7-(2-Acetylsulfanyl-3-methyl-butyrylamino)-6-oxo-1,2,3,4,6,7,8,12b-octahydro-benzo[c]pyrido[1,2-a]azepine-4-carboxylic acid, reference compound]
- Lung weight ([2]; 30 mg/kg/d): 0.56 ± 0.07 g/100 g BW
- Cardiac output ([2]; 30 mg/kg/d): 27.2 ± 3.5 mL/min
- LV dP/dtmax ([2]; 30 mg/kg/d): 3868 ± 172 Mm Hg/s
- LV dP/dtmin ([2]; 30 mg/kg/d): 2379 ± 120 mm Hg/s

Compound: Cc1cccc(COCCCOCc2coc(-c3ccccc3)n2)c1C(=O)O [compound (I), 2-methyl-6-[3-(2-phenyloxazol-4-ylmethoxy)propoxymethyl] benzoic acid]
- Effect of chronic treatment on heart failure (in words) ([1]; MI rats, eight weeks in chow, compound (I) 20 mg/kg/d, rosiglitazone 3 mg/kg/day): improves different aspects of heart failure
- Lung weight [1, 4]: 1.62 ± 0.06 Gram
- Cardiac output [1, 4]: 25.8 ± 4.3 mL/min
- LV dP/dtmax [1, 4]: 4614 ± 253 mmHg/s
- LV dP/dtmin [1, 4]: 2502 ± 77 mmHg/s
- Effect of chronic treatment on heart failure (in words) ([2]; MI rats, 8 weeks in chow, different daily doses): improves different aspects of heart failure
- Lung weight ([2]; 1 mg/kg/d in chow): 0.80 ± 0.08 g/100 g BW
- Cardiac output ([2]; 1 mg/kg/d in chow): 12.5 ± 3.3 mL/min
- LV dP/dtmax ([2]; 1 mg/kg/d in chow): 3280 ± 250 Mm Hg/s
- LV dP/dtmin ([2]; 1 mg/kg/d in chow): 1886 ± 137 mm Hg/s
- Lung weight ([2]; 3 mg/kg/d in chow): 0.54 ± 0.08 g/100 g BW
- Cardiac output ([2]; 3 mg/kg/d in chow): 21.5 ± 5.4 mL/min
- LV dP/dtmax ([2]; 3 mg/kg/d in chow): 3665 ± 166 Mm Hg/s
- LV dP/dtmin ([2]; 3 mg/kg/d in chow): 2353 ± 77 mm Hg/s
- Lung weight ([2]; 10 mg/kg/d in chow): 0.54 ± 0.09 g/100 g BW
- Cardiac output ([2]; 10 mg/kg/d in chow): 21.0 ± 4.0 mL/min
- LV dP/dtmax ([2]; 10 mg/kg/d in chow): 4043 ± 256 Mm Hg/s
- LV dP/dtmin ([2]; 10 mg/kg/d in chow): 2339 ± 111 mm Hg/s
